Absorption maximum data for 45 molecules are collected here from the Deep4Chem optical property database.

Each structure is given as a SMILES string.

A short description of this data set: solvent given as SMILES.

In the case of `COC(=O)CCC1=CC(C#Cc2cccs2)=[N+]2C1=Cc1c(CCC(=O)OC)cc(C#Cc3cccs3)n1[B-]2(F)F`, the absorption maximum (in ClCCl) was found to be 649 nm.

Consider `Cc1ccc(C2=C3C=CC(C#Cc4ccccc4)=[N+]3[B-](F)(F)n3c(C#Cc4ccccc4)ccc32)cc1`, for which the absorption maximum came out at 615 nm (in C1CCCCC1); 610 nm (in C1CCOC1); 612 nm (in C1COCCO1); 607 nm (in CCOC(C)=O); 605 nm (in CO); 614 nm (in Cc1ccccc1). The same molecule came in with an absorption maximum (in ClC(Cl)Cl) of 614 nm and an absorption maximum (in ClCCl) of 614 nm.

In the case of `COC(=O)C(NC(=O)OC(C)(C)C)c1ccc2oc(-c3ccc(OC(=O)c4ccccc4)cc3OC(=O)c3ccccc3)nc2c1` (stereo not drawn), the absorption maximum by setting is: (in CC1CCCCC1) 323 nm; (in CC#N) 306 nm; (in CO) 306 nm.

Where the note is “in ClCCl”, `Fc1ccccc1N1c2c(sc3ccccc23)Sc2sc3ccccc3c21` displayed an absorption maximum of 353 nm.

Take `COC(=O)C(C)NC(=O)CCNc1cccc2ccccc12` (stereo not drawn): the absorption maximum (in CCO) was 331 nm.

As for `COc1cccc2cc(-c3ccc([N+](=O)[O-])cc3)c(=N)oc12`, the absorption maximum is given as 339 nm (in C1CCOC1), 332 nm (in CC#N), 335 nm (in CS(C)=O) and 332 nm (in ClC(Cl)Cl).

For the molecule `CN(C)c1ccc(/C=C/c2ccc(C#N)cc2)cc1`, the absorption maximum runs as follows: (in C1CCOC1) 385 nm; (in CC#N) 383 nm; (in CCCC#N) 386 nm; (in CCCCCC) 378 nm; (in CCCCOCCCC) 380 nm; (in CCO) 383 nm. The molecule further showed an absorption maximum (in CCOCC) of 380 nm.

Molecule `Fc1cc(-c2ccc(-c3nc4cc(Br)ccc4[nH]3)cc2)ccc1-c1ccc(-c2nc3cc(Br)ccc3[nH]2)cc1` yielded an absorption maximum (in CN(C)C=O) of 342 nm.

`CCCCCN(c1ccccc1)c1ccc2c(c1)C(CC)(CC)c1cc(/C=C/c3ccc(/C=C(\C#N)C(=O)O)s3)ccc1-2`: the absorption maximum by setting is: (in C1CCOC1) 456 nm; (in C1COCCO1) 464 nm; (in CC#N) 430 nm; (in CC(C)=O) 464 nm; (in CCOC(C)=O) 460 nm; (in CN(C)C=O) 418 nm. This molecule also returned an absorption maximum (in CS(C)=O) of 430 nm and an absorption maximum (in ClCCl) of 470 nm.

Take `COc1ccc(-c2cc3ccccc3p2-c2ccccc2)cc1` (stereo not drawn): the absorption maximum (in C1CCOC1) is 340 nm.

In the case of `CCOC(CN1C(=O)C2=C(c3cccs3)N(CC(OCC)OCC)C(=O)C2=C1c1cccs1)OCC`, where the note is “in ClC(Cl)Cl”, the absorption maximum is 533 nm.

Where the note is “in Cc1ccccc1”, `CCCCOC(=O)c1cc(Cl)c2c3c(Cl)cc4c5c(cc(Cl)c(c6c(Oc7ccc(C(=O)OC)cc7)cc(C(=O)OCCCC)c1c26)c53)C(=O)N(c1c(C(C)C)cccc1C(C)C)C4=O` returned an absorption maximum of 507 nm.

Consider `Cc1cn(C(F)(F)F)c(=O)[nH]c1=O`, for which the absorption maximum (in CC#N) amounted to 255 nm.

Regarding `Clc1cc(Cl)c([C](c2c(Cl)cc(Cl)cc2Cl)c2c(Cl)cc(-n3c4ccccc4c4ccccc43)cc2Cl)c(Cl)c1`, the absorption maximum (in ClC(Cl)Cl) was 598 nm.

Where the note is “in Cc1ccccc1”, `CCCC1=Cc2nc1ccc1[nH]c(cc1CCC)c1nc(c(OC(=O)CCCNC(=O)OC(C)(C)C)cc3[nH]c2cc3CCC)C(CCC)=C1` registered an absorption maximum of 645 nm.

In the case of `CC1=CC(c2ccc(N(C)C)cc2)=[N+]2C1=Nc1c(C)cc(-c3ccc(N(C)C)cc3)n1[B-]2(F)F`, the absorption maximum by setting is: (in C1CCOC1) 744 nm; (in CS(C)=O) 774 nm; (in Cc1ccccc1) 734 nm.

Under “in C1CCCCC1”, `Cc1cc(C)c(B2c3cc(C(C)(C)C)cc4ccc5ccc6cc(C(C)(C)C)cc2c6c5c34)c(C)c1` had an absorption maximum of 427 nm.

`COC(=O)c1ccc(C#Cc2c3c(c4c(-c5ccccc5)c(-c5ccccc5)c(-c5ccccc5)c(-c5ccccc5)c4c2-c2ccc(C(=O)OC)cc2)CC(C(=O)OC)(C(=O)OC)C3)cc1` had an absorption maximum (in C1CCOC1) of 347.38 nm.

On to `CC(C)[Si](C#Cc1c2ccccc2c(C#C[Si](C(C)C)(C(C)C)C(C)C)c2nc3ccccc3nc12)(C(C)C)C(C)C`, for which the absorption maximum reads like this: (in CCCCCC) 570 nm; (in ClCCl) 570 nm.

`COc1cccc(OC)c1-c1c2ccc(=[N+]3CCCCC3)cc-2oc2cc(N3CCCCC3)ccc12` had an absorption maximum (in ClCCl) of 565 nm.

`CC[N+]1(CC)CN2C(=N1)C(C(=O)O)=Cc1cc(OC)ccc12` yielded an absorption maximum (in O) of 394 nm.

With `COc1ccc(-c2ccc(-c3ccc(OC)cc3)c3nc(-c4ccccc4)c(-c4ccccc4)nc23)cc1`, under “in ClC(Cl)Cl”, the absorption maximum was 366 nm.

On to `c1ccc(-c2cc3cccc[n+]3[b-]3c(-c4cccc5[b-]4[n+]4ccccc4cc5-c4ccccc4)cccc32)cc1`, for which the absorption maximum (in C1CCCCC1) is given as 449 nm.

`COc1ccc(-c2c3ccccc3c(-c3ccc(OC)cc3)c3cc4ccccc4cc23)cc1`: the absorption maximum (in ClCCl) came out at 495 nm.

`N#Cc1ccc(N/N=C/c2cc(Cl)ccc2O)cc1` showed an absorption maximum (in CO) of 354 nm.

In the case of `CCCCCCc1ccsc1-c1ccc2c(c1)C1=[N+]3C2=Cc2c4ccc(-c5sccc5CCCCCC)cc4c4n2[B-]3(Oc2ccccc21)Oc1ccccc1-4` (stereo not drawn), the absorption maximum (in C1CCOC1) is reported as 733 nm.

For `CCN(CC)c1ccc(/C=N/C2CCCCC2/N=C/c2ccc(N(CC)CC)cc2O)c(O)c1` (stereo not drawn), the absorption maximum runs as follows: (in CC#N) 376 nm; (in CN(C)C=O) 410 nm; (in ClCCl) 403 nm.

Where the note is “in ClCCl”, `COC(=O)C1=C(C(=O)OC)C2=C[C@H]3c4ccccc4[C@]2([Se]1)c1ccccc13` registered an absorption maximum of 370 nm.

Regarding `COc1cc(/C=C2/SC(=O)NC2=O)ccc1O`, the absorption maximum is recorded as 348 nm (in C1CCCCC1); 358 nm (in C1COCCO1); 354 nm (in CC#N); 340 nm (in CN(C)C=O); 355 nm (in CO); 355 nm (in O). The same molecule registered an absorption maximum (in OCC(O)CO) of 367 nm and an absorption maximum (in OCCO) of 361 nm.

On to `Oc1ccc2ccccc2c1C1Nc2cccc3cccc(c23)N1`, for which the absorption maximum turned out to be 334 nm (in CC#N), 333 nm (in CO), 350 nm (in CS(C)=O) and 337 nm (in Cc1ccccc1).

With `COc1ccc2cc(/C=C/C3=C4CCc5ccccc5C4=[O+][B-](F)(F)O3)ccc2c1`, the absorption maximum (in ClCCl) is recorded as 479 nm.

For the molecule `C[Si]1(C)O[Si](C)(C)c2cc3c(-c4ccccc4)c4ccccc4nc3cc21`, the absorption maximum (in ClCCl) is 368 nm.

For the setting “in ClC(Cl)Cl”, `COc1ccc(-c2oc3cccc4c5c(-c6ccc(OC)c(OC)c6)c(=N)oc6cccc(c2c34)c65)cc1OC` returned an absorption maximum of 410 nm.

With `COc1cc2c(cc1-c1ccncc1)Cc1c3c(c4c(c1-2)-c1cc(OC)c(-c2ccncc2)cc1C4)C(=O)N(CCC(C)C)C3=O`, where the note is “in C1CCOC1”, the absorption maximum is on record as 407 nm.

With `c1ccc2c(c1)OP1(=NP(Oc3ccc4ccc5cccc6ccc3c4c56)(Oc3ccc4ccc5cccc6ccc3c4c56)=NP(Oc3ccc4ccc5cccc6ccc3c4c56)(Oc3ccc4ccc5cccc6ccc3c4c56)=N1)Oc1ccccc1-2`, the absorption maximum (in ClCCl) is given as 343 nm.

For `c1ccc(-c2c3c(c(-c4ccccc4)c4cc5ccccc5cc24)Cc2c(c(-c4ccccc4)c4cc5ccccc5cc4c2-c2ccccc2)C3)cc1`, the absorption maximum is, setting by setting: (in CC#N) 389 nm; (in CCCCCC) 388 nm; (in CO) 388 nm; (in Cc1ccccc1) 391 nm; (in ClCCl) 392 nm.

For the setting “in ClCCl”, `CC(C)c1cccc(C(C)C)c1N1C(=O)c2ccc3c(-c4ccc(C(=O)O)cc4)c4c5ccc6c7c(ccc(c(-c8ccc(C(=O)O)cc8)c4c4ccc(c2c34)C1=O)c75)C(=O)N(c1c(C(C)C)cccc1C(C)C)C6=O` gave an absorption maximum of 622 nm.

`CN(C)c1ccc(/C=C/c2cnc(/C=C/c3ccc(C#N)cc3)o2)cc1` returned an absorption maximum (in ClCCl) of 432 nm.

As to `F[B-]1(F)n2c(nc3c4ccccc4c4ccccc4c32)-c2cccc[n+]21`, the absorption maximum runs as follows: (in CC#N) 403 nm; (in CCCCCC) 447 nm; (in CO) 404 nm; (in ClC(Cl)Cl) 430 nm; (in ClCCl) 421 nm.

Molecule `N#Cc1c(-n2nnc3ccccc32)n([C@H]2C[C@H](O)[C@@H](CO)O2)c2ncnc(N)c12` displayed an absorption maximum (in CO) of 278 nm.

Consider `N#C[Se]CCCCCOc1ccc2ccc(=O)oc2c1`, for which the absorption maximum is recorded as 321 nm (in C1CCCCC1); 322 nm (in C1CCOC1); 319 nm (in C1COCCO1); 321 nm (in CC#N); 319 nm (in CCCCCCC); 323 nm (in CCO). Further, the absorption maximum was 322 nm (in CN(C)C=O), 322 nm (in CO), 324 nm (in O) and 326 nm (in OCCO).

As for `CCCCCCCc1cc2c(o1)=CC1=C3c4cc5oc(CCCCCCC)cc5n4[B-](F)(F)[n+]4nnn(c43)[B-](F)(F)[N+]=21`, the absorption maximum runs as follows: (in C1CCOC1) 676 nm; (in ClCCl) 685 nm.

Consider `O=C(c1ccncc1)c1ccc(-n2c3ccccc3c3cc(-n4c5ccccc5c5ccccc54)ccc32)cc1`, for which the absorption maximum by setting is: (in C1CCOC1) 342.64 nm; (in CCCCCC) 342.64 nm; (in Cc1ccccc1) 362 nm; (in ClCCl) 342.64 nm.

Turning to `CC(C)(C)c1ccc2c(c1)c1cc(C(C)(C)C)ccc1n2-c1cccc2c1Oc1c(-c3nc(-c4ccccc4)nc(-c4ccccc4)n3)cccc1C2(C)C`, the absorption maximum (in Cc1ccccc1) turned out to be 346 nm.

Regarding `COC(=O)c1ccc2ccc3cccc4ccc1c2c34`, the absorption maximum was determined as 379 nm (in C1CCOC1); 379 nm (in CC#N); 379 nm (in CCCCCC); 380 nm (in CCO); 380 nm (in CN(C)C=O); 379 nm (in CO). Moreover, the absorption maximum (in Cc1ccccc1) worked out at 381 nm and the absorption maximum (in ClCCl) is listed as 379 nm.
